Measurements taken from ChEMBL document CHEMBL1201862, “PubChem BioAssay data set” (2004).
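Tested at 5 concentrations; 48 h exposure; 96-well plates; endpoints linearly interpolated, else capped at highest concentration. The concentration for 50% growth inhibition is given as GI50.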 Active and inactive are the calls of the source. Rule as the data show it: active = GI50 up to about 1.1 µM and inactive = higher.

Experiments:
Test in all cases: growth of human tumour cells (NCI), 48 h
786-0 = system: 786-0
A498 = system: A498
A549 = system: A549
ACHN = system: ACHN
BT-549 = system: BT-549
CAKI-1 = system: CAKI-1
CCRF-CEM = system: CCRF-CEM
COLO 205 = system: COLO 205
DU-145 = system: DU-145
EKVX = system: EKVX
HCC 2998 = system: HCC 2998
HCT-116 = system: HCT-116
HCT-15 = system: HCT-15
HL-60 = system: HL-60
HOP-62 = system: HOP-62
HOP-92 = system: HOP-92
HT-29 = system: HT-29
Hs-578T = system: Hs-578T
IGROV-1 = system: IGROV-1
K562 = system: K562
KM12 = system: KM12
LOX IMVI = system: LOX IMVI
M14 = system: M14
MCF7 = system: MCF7
MDA-MB-231 = system: MDA-MB-231
MDA-MB-435 = system: MDA-MB-435
MDA-N = system: MDA-N
MOLT-4 = system: MOLT-4
Malme-3M = system: Malme-3M
NCI-H226 = system: NCI-H226
NCI-H23 = system: NCI-H23
NCI-H460 = system: NCI-H460
NCI-H522 = system: NCI-H522
NCI/ADR-RES = system: NCI/ADR-RES
OVCAR-3 = system: OVCAR-3
OVCAR-4 = system: OVCAR-4
OVCAR-5 = system: OVCAR-5
OVCAR-8 = system: OVCAR-8
PC-3 = system: PC-3
RPMI-8226 = system: RPMI-8226
RXF 393 = system: RXF 393
SF-268 = system: SF-268
SF-295 = system: SF-295
SF-539 = system: SF-539
SK-MEL-28 = system: SK-MEL-28
SK-MEL-2 = system: SK-MEL-2
SK-MEL-5 = system: SK-MEL-5
SK-OV-3 = system: SK-OV-3
SN12C = system: SN12C
SNB-19 = system: SNB-19
SNB-75 = system: SNB-75
SR = system: SR
SW-620 = system: SW-620
T47D = system: T47D
TK-10 = system: TK-10
U-251 = system: U-251
UACC-257 = system: UACC-257
UACC-62 = system: UACC-62
UO-31 = system: UO-31
DLD-1 = system: DLD-1
DMS-114 = system: DMS-114
DMS-273 = system: DMS-273
KM-20L2 = system: KM-20L2
LXFL 529 = system: LXFL 529
M19-MEL = system: M19-MEL
SNB-78 = system: SNB-78
HOP-18 = system: HOP-18

NCCc1c[nH]c2ccc(OC(=O)C(=O)O)cc12
GI50 (786-0): > 100 µM (inactive) | GI50 (A498): > 100 µM (inactive) | GI50 (A549): > 100 µM (inactive) | GI50 (ACHN): > 100 µM (inactive) | GI50 (BT-549): > 100 µM (inactive) | GI50 (CAKI-1): > 100 µM (inactive) | GI50 (CCRF-CEM): > 100 µM (inactive) | GI50 (COLO 205): > 100 µM (inactive) | GI50 (DU-145): > 100 µM (inactive) | GI50 (EKVX): > 100 µM (inactive) | GI50 (HCC 2998): > 100 µM (inactive) | GI50 (HCT-116): > 100 µM (inactive) | GI50 (HCT-15): > 100 µM | GI50 (HL-60): 0.302 µM (active) | GI50 (HOP-62): > 100 µM (inactive) | GI50 (HOP-92): > 100 µM (inactive) | GI50 (HT-29): > 100 µM (inactive) | GI50 (Hs-578T): > 100 µM (inactive) | GI50 (IGROV-1): > 100 µM (inactive) | GI50 (K562): > 100 µM (inactive) | GI50 (KM12): > 100 µM (inactive) | GI50 (LOX IMVI): > 100 µM (inactive) | GI50 (M14): > 100 µM (inactive) | GI50 (MCF7): > 100 µM (inactive) | GI50 (MDA-MB-231): > 100 µM (inactive) | GI50 (MDA-MB-435): > 100 µM (inactive) | GI50 (MDA-N): > 100 µM (inactive) | GI50 (MOLT-4): > 100 µM (inactive) | GI50 (Malme-3M): > 100 µM (inactive) | GI50 (NCI-H226): > 100 µM (inactive) | GI50 (NCI-H23): > 100 µM (inactive) | GI50 (NCI-H460): > 100 µM (inactive) | GI50 (NCI-H522): > 100 µM (inactive) | GI50 (NCI/ADR-RES): > 100 µM (inactive) | GI50 (OVCAR-3): > 100 µM (inactive) | GI50 (OVCAR-4): > 100 µM (inactive) | GI50 (OVCAR-5): > 100 µM (inactive) | GI50 (OVCAR-8): > 100 µM (inactive) | GI50 (PC-3): > 100 µM (inactive) | GI50 (RPMI-8226): > 100 µM (inactive) | GI50 (RXF 393): > 100 µM (inactive) | GI50 (SF-268): > 100 µM (inactive) | GI50 (SF-295): > 100 µM (inactive) | GI50 (SF-539): > 100 µM (inactive) | GI50 (SK-MEL-28): > 100 µM (inactive) | GI50 (SK-MEL-2): > 100 µM (inactive) | GI50 (SK-MEL-5): > 100 µM (inactive) | GI50 (SK-OV-3): > 100 µM (inactive) | GI50 (SN12C): > 100 µM (inactive) | GI50 (SNB-19): > 100 µM (inactive) | GI50 (SNB-75): > 100 µM (inactive) | GI50 (SR): > 100 µM (inactive) | GI50 (SW-620): > 100 µM (inactive) | GI50 (T47D): > 100 µM (inactive) | GI50 (TK-10): > 100 µM (inactive) | GI50 (U-251): > 100 µM (inactive) | GI50 (UACC-257): > 100 µM (inactive) | GI50 (UACC-62): > 100 µM (inactive) | GI50 (UO-31): > 100 µM (inactive)

CCOC(=O)c1sc2c(C(=O)OCC)n3cc(C)cc(C)c3c2c1O
GI50 (786-0): > 100 µM (inactive) | GI50 (A549): > 100 µM (inactive) | GI50 (ACHN): > 100 µM (inactive) | GI50 (CAKI-1): > 100 µM (inactive) | GI50 (CCRF-CEM): > 100 µM (inactive) | GI50 (COLO 205): > 100 µM (inactive) | GI50 (DLD-1): > 100 µM (inactive) | GI50 (DMS-114): 37.6 µM (inactive) | GI50 (DMS-273): > 100 µM (inactive) | GI50 (EKVX): 29.5 µM (inactive) | GI50 (HCC 2998): > 100 µM (inactive) | GI50 (HCT-116): > 100 µM (inactive) | GI50 (HOP-92): 76.4 µM (inactive) | GI50 (HT-29): > 100 µM (inactive) | GI50 (IGROV-1): > 100 µM (inactive) | GI50 (K562): > 100 µM (inactive) | GI50 (KM-20L2): > 100 µM (inactive) | GI50 (KM12): > 100 µM (inactive) | GI50 (LOX IMVI): > 100 µM (inactive) | GI50 (LXFL 529): > 100 µM (inactive) | GI50 (M14): > 100 µM (inactive) | GI50 (M19-MEL): > 100 µM (inactive) | GI50 (MOLT-4): > 100 µM (inactive) | GI50 (Malme-3M): > 100 µM (inactive) | GI50 (NCI-H226): > 100 µM (inactive) | GI50 (NCI-H23): > 100 µM (inactive) | GI50 (NCI-H460): > 100 µM (inactive) | GI50 (NCI-H522): 80.4 µM (inactive) | GI50 (OVCAR-3): 63.2 µM (inactive) | GI50 (OVCAR-4): > 100 µM (inactive) | GI50 (OVCAR-5): > 100 µM (inactive) | GI50 (OVCAR-8): > 100 µM (inactive) | GI50 (RXF 393): > 100 µM (inactive) | GI50 (SF-268): > 100 µM (inactive) | GI50 (SF-295): > 100 µM (inactive) | GI50 (SF-539): > 100 µM (inactive) | GI50 (SK-MEL-28): > 100 µM (inactive) | GI50 (SK-MEL-2): > 100 µM (inactive) | GI50 (SK-MEL-5): > 100 µM (inactive) | GI50 (SK-OV-3): > 100 µM (inactive) | GI50 (SN12C): > 100 µM (inactive) | GI50 (SNB-19): > 100 µM (inactive) | GI50 (SNB-75): 58.7 µM (inactive) | GI50 (SNB-78): > 100 µM (inactive) | GI50 (SR): > 100 µM (inactive) | GI50 (SW-620): > 100 µM (inactive) | GI50 (TK-10): > 100 µM (inactive) | GI50 (U-251): > 100 µM (inactive) | GI50 (UACC-62): > 100 µM (inactive) | GI50 (UO-31): > 100 µM (inactive)

CCN(CC)CC[n+]1ccc2c(C)c3[nH]c4ccccc4c3c(C)c2c1
GI50 (A498): 5.19 µM (inactive) | GI50 (CAKI-1): 1.11 µM (active) | GI50 (CCRF-CEM): 0.219 µM (active) | GI50 (DLD-1): 1.67 µM (inactive) | GI50 (DMS-273): 0.315 µM (active) | GI50 (EKVX): 0.982 µM (active) | GI50 (HCC 2998): 0.319 µM (active) | GI50 (HCT-15): 16.3 µM | GI50 (HL-60): 0.31 µM (active) | GI50 (HOP-62): 0.953 µM (active) | GI50 (HT-29): 0.518 µM (active) | GI50 (K562): 0.182 µM (active) | GI50 (KM12): 0.385 µM (active) | GI50 (LOX IMVI): 0.399 µM (active) | GI50 (MCF7): 0.678 µM (active) | GI50 (MOLT-4): 0.182 µM (active) | GI50 (Malme-3M): 0.583 µM (active) | GI50 (NCI-H23): 0.292 µM (active) | GI50 (NCI-H460): 0.451 µM (active) | GI50 (NCI-H522): 0.211 µM (active) | GI50 (OVCAR-3): 0.213 µM (active) | GI50 (OVCAR-5): 1.14 µM (inactive) | GI50 (RPMI-8226): 0.644 µM (active) | GI50 (RXF 393): 2.09 µM (inactive) | GI50 (SF-268): 0.222 µM (active) | GI50 (SF-295): 0.701 µM (active) | GI50 (SF-539): 0.413 µM (active) | GI50 (SK-MEL-28): 0.352 µM (active) | GI50 (SK-MEL-2): 0.465 µM (active) | GI50 (SK-MEL-5): 0.337 µM (active) | GI50 (SN12C): 0.222 µM (active) | GI50 (SNB-19): 0.17 µM (active) | GI50 (SNB-75): 0.251 µM (active) | GI50 (SW-620): 0.445 µM (active) | GI50 (U-251): 0.173 µM (active) | GI50 (UACC-257): 0.565 µM (active)

CO[C@H](/C(C)=C/C=C/C(C)=C/c1coc(C)n1)[C@H](C)[C@H]1C[C@@H](O)[C@@]2(C)O[C@H]2/C=C/[C@@H](C)[C@@H]2C[C@@H](CC(=O)O2)C[C@H]2O[C@@H]2C(=O)O1
GI50 (A549): < 0.01 µM (active) | GI50 (COLO 205): < 0.01 µM (active) | GI50 (DLD-1): 0.0147 µM (active) | GI50 (DMS-114): < 0.01 µM (active) | GI50 (DMS-273): < 0.01 µM (active) | GI50 (EKVX): 2.03e-06 µM (active) | GI50 (HCC 2998): < 0.01 µM (active) | GI50 (HOP-18): 0.05 µM (active) | GI50 (HT-29): 0.0133 µM (active) | GI50 (K562): < 0.01 µM (active) | GI50 (KM-20L2): < 0.01 µM (active) | GI50 (LXFL 529): < 0.01 µM (active) | GI50 (M19-MEL): < 0.0236 µM (active) | GI50 (Malme-3M): < 0.01 µM (active) | GI50 (OVCAR-4): 5.18e-06 µM (active) | GI50 (OVCAR-5): 0.000384 µM (active) | GI50 (SK-MEL-2): < 0.01 µM (active) | GI50 (SK-OV-3): 1.03e-06 µM (active) | GI50 (SNB-75): < 0.0271 µM (active) | GI50 (SR): < 0.01 µM (active) | GI50 (TK-10): 3.21e-06 µM (active) | GI50 (UACC-257): < 0.0283 µM (active) | GI50 (UACC-62): < 0.01 µM (active)
